Source: patent publication US12655120B2, “GPR52 modulator compounds” (NXERA PHARMA UK LIMITED, priority 2020, dated 2026)

Molecular target: T1, human GPR52 (Homo sapiens, UniProt Q9Y2T5)
T1 construct: expressed in transfected cells; host or cells: HEKf suspension cells infected with BacMam virus
Assay: GPR52 Agonist Functional cAMP Assay
Type: cell-based
Conditions: for EC50: HEKf cells infected with human GPR52 BacMam, HTRF cAMP, 30 min at 37° C., read-out: pEC50 average (converted); for Emax: normalised to DMSO (0%) and maximal compound 7m (J. Med. Chem., 2014, 57, 5226) response (100%)
Description: HEKf suspension cells were infected for 24 h with 0.1% v/v human GPR52 expressing BacMam virus, a modified baculovirus designed for mammalian gene expression. Following BacMam infection, cells were pelleted by centrifugation (335 g, 5 min), resuspended in cell freezing medium (Sigma) and frozen at −150° C. until required. On experiment day, 25 nL GPR52 compound dilutions, prepared in DMSO, were stamped onto proxiplates (PerkinElmer) by a LabCyte ECHO acoustic dispenser. Frozen cells were thawed and resuspended in assay stimulation buffer (Cisbio) containing 0.5 mM 3-iso-butyl-1-methylxanthine (IBMX, Sigma) to achieve a density of 2000 cells per well. 10 μl cells were added to assay plates using a Multidrop Combi Reagent Dispenser (ThermoFisher) before centrifugation (335 g, 1 min). Cells were incubated with compounds at 37° C. for 30 min prior to addition of cAMP detection reagents (HiRange cAMP kit, Cisbio) which were prepared according to the manufacturer's instructions. Plates were shaken for 1 h at room temperature before reading on a PHERAstar FS plate reader (BMG Labtech) using standard HTRF settings. HTRF ratios were obtained by dividing the acceptor emissions (665 nm) by the donor emissions (620 nm) and multiplying by 10,000.

T1 sequence (Q9Y2T5 whole entry): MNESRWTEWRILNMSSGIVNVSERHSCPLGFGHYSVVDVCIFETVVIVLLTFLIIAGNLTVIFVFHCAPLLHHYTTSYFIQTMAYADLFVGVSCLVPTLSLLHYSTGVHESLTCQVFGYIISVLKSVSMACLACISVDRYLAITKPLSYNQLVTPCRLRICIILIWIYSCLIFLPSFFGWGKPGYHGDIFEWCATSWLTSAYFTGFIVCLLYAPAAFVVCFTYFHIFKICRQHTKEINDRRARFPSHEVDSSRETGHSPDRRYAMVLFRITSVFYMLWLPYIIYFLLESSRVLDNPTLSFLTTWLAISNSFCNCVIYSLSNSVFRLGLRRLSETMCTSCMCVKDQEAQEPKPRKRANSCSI

Row | Compound | EC50 [nM] | Emax [%]
1 | NC(=O)c1cnn(-c2cc(Cc3cc(F)cc(C(F)(F)F)c3)ccn2)c1 [Example 1, 1-(4-(3-fluoro-5-(trifluoromethyl)benzyl)pyridin-2-yl)-1H-pyrazole-4-carboxamide] | 126 | 90
2 | NC(=O)c1cnn(-c2ccnc(Cc3cc(F)cc(C(F)(F)F)c3)c2)c1 [Example 2, 1-(2-(3-fluoro-5-(trifluoromethyl)benzyl)pyridin-4-yl)-1H-pyrazole-4-carboxamide] | 501 | 90
3 | CNC(=O)c1cnn(-c2cc(Cc3cc(F)cc(C(F)(F)F)c3)ccn2)c1 [Example 3, 1-(4-(3-fluoro-5-(trifluoromethyl)benzyl)pyridin-2-yl)-N-methyl-1H-pyrazole-4-carboxamide] | 316 | 86
4 | NC(=O)c1cnn(-c2cc(Cc3cc(F)cc(C(F)(F)F)c3)ccn2)n1 [Example 4, 2-(4-(3-fluoro-5-(trifluoromethyl)benzyl)pyridin-2-yl)-2H-1,2,3-triazole-4-carboxamide] | 316 | 84
5 | Cc1nn(-c2cc(Cc3cc(F)cc(C(F)(F)F)c3)ccn2)cc1C(N)=O [Example 5, 1-(4-(3-fluoro-5-(trifluoromethyl)benzyl)pyridin-2-yl)-3-methyl-1H-pyrazole-4-carboxamide] | 15.8 | 94
6 | Cc1nn(-c2cc(Cc3cc(F)cc(C(F)(F)F)c3)ccn2)c(C)c1C(N)=O [Example 6, 1-(4-(3-fluoro-5-(trifluoromethyl)benzyl)pyridin-2-yl)-3,5-dimethyl-1H-pyrazole-4-carboxamide] | 12.6 | 97
7 | Cc1c(C(N)=O)cnn1-c1cc(Cc2cc(F)cc(C(F)(F)F)c2)ccn1 [Example 7, 1-(4-(3-fluoro-5-(trifluoromethyl)benzyl)pyridin-2-yl)-5-methyl-1H-pyrazole-4-carboxamide] | 126 | 93
8 | Cc1nn(-c2ccnc(Cc3cc(F)cc(C(F)(F)F)c3)c2)cc1C(N)=O [Example 8, 1-(2-(3-fluoro-5-(trifluoromethyl)benzyl)pyridin-4-yl)-3-methyl-1H-pyrazole-4-carboxamide] | 20 | 96
9 | NC(=O)c1ccn(-c2cc(Cc3cc(F)cc(C(F)(F)F)c3)ccn2)n1 [Example 9, 1-(4-(3-fluoro-5-(trifluoromethyl)benzyl)pyridin-2-yl)-1H-pyrazole-3-carboxamide] | 100 | 85
10 | Cc1cn(-c2cc(Cc3cc(F)cc(C(F)(F)F)c3)ccn2)nc1C(N)=O [Example 10, 1-(4-(3-fluoro-5-(trifluoromethyl)benzyl)pyridin-2-yl)-4-methyl-1H-pyrazole-3-carboxamide] | 79.4 | 83
11 | COc1nn(-c2ccnc(Cc3cc(F)cc(C(F)(F)F)c3)c2)cc1C(N)=O [Example 11, 1-(2-(3-fluoro-5-(trifluoromethyl)benzyl)pyridin-4-yl)-3-methoxy-1H-pyrazole-4-carboxamide] | 251 | 86
12 | Cc1nn(-c2ccnc(Cc3cc(F)cc(C(F)(F)F)c3)c2)nc1C(N)=O [Example 12, 2-(2-(3-fluoro-5-(trifluoromethyl)benzyl)pyridin-4-yl)-5-methyl-2H-1,2,3-triazole-4-carboxamide] | 50.1 | 95
13 | Cc1nn(-c2cc(Cc3cc(F)cc(C(F)(F)F)c3)ccn2)nc1C(N)=O [Example 13, 2-(4-(3-fluoro-5-(trifluoromethyl)benzyl)pyridin-2-yl)-5-methyl-2H-1,2,3-triazole-4-carboxamide] | 39.8 | 93
14 | COc1nn(-c2cc(Cc3cc(F)cc(C(F)(F)F)c3)ccn2)cc1C(N)=O [Example 14, 1-(4-(3-fluoro-5-(trifluoromethyl)benzyl)pyridin-2-yl)-3-methoxy-1H-pyrazole-4-carboxamide] | 31.6 | 95
15 | Cc1cn(-c2cccc(Cc3cc(F)cc(C(F)(F)F)c3)n2)nc1C(N)=O [Example 15, 1-(6-(3-fluoro-5-(trifluoromethyl)benzyl)pyridin-2-yl)-4-methyl-1H-pyrazole-3-carboxamide] | 79.4 | 92
16 | Cc1nn(-c2ccnc(Cc3cc(F)cc(C(F)(F)F)c3)c2)cc1C(=O)N1CCCC1 [Example 16, (1-(2-(3-fluoro-5-(trifluoromethyl)benzyl)pyridin-4-yl)-3-methyl-1H-pyrazol-4-yl)(pyrrolidin-1-yl)methanone] | 31.6 | 93

Row | Compound | EC50 [nM] | Emax [%]
17 | CNC(=O)c1cn(-c2ccnc(Cc3cc(F)cc(C(F)(F)F)c3)c2)nc1C [Example 17, 1-(2-(3-fluoro-5-(trifluoromethyl)benzyl)pyridin-4-yl)-N,3-dimethyl-1H-pyrazole-4-carboxamide] | 10 | 93
18 | Cc1nn(-c2ccnc(Cc3cc(F)cc(C(F)(F)F)c3)c2)cc1C(=O)N(C)C [Example 18, 1-(2-(3-fluoro-5-(trifluoromethyl)benzyl)pyridin-4-yl)-N,N,3-trimethyl-1H-pyrazole-4-carboxamide] | 79.4 | 92
19 | Cc1nn(-c2ccnc(Cc3cc(F)cc(C(F)(F)F)c3)c2)cc1C(=O)NC1COC1 [Example 19, 1-(2-(3-fluoro-5-(trifluoromethyl)benzyl)pyridin-4-yl)-3-methyl-N-(oxetan-3-yl)-1H-pyrazole-4-carboxamide] | 15.8 | 99
20 | Cc1nn(-c2ccnc(Cc3cc(F)cc(C(F)(F)F)c3)c2)cc1C(=O)NCCO [Example 20, 1-(2-(3-fluoro-5-(trifluoromethyl)benzyl)pyridin-4-yl)-N-(2-hydroxyethyl)-3-methyl-1H-pyrazole-4-carboxamide] | 15.8 | 96
21 | COCCNC(=O)c1cn(-c2ccnc(Cc3cc(F)cc(C(F)(F)F)c3)c2)nc1C [Example 21, 1-(2-(3-fluoro-5-(trifluoromethyl)benzyl)pyridin-4-yl)-N-(2-methoxyethyl)-3-methyl-1H-pyrazole-4-carboxamide] | 39.8 | 96
22 | NC(=O)c1cn(-c2ccnc(Cc3cc(F)cc(C(F)(F)F)c3)c2)nc1Cl [Example 22, 3-chloro-1-(2-(3-fluoro-5-(trifluoromethyl)benzyl)pyridin-4-yl)-1H-pyrazole-4-carboxamide] | 15.8 | 96
23 | NC(=O)c1cn(-c2ccnc(Cc3cc(F)cc(C(F)(F)F)c3)c2)nc1C(F)F [Example 23, 3-(difluoromethyl)-1-(2-(3-fluoro-5-(trifluoromethyl)benzyl)pyridin-4-yl)-1H-pyrazole-4-carboxamide] | 25.1 | 87
24 | NC(=O)c1cn(-c2ccnc(Cc3cc(F)cc(C(F)(F)F)c3)c2)nc1C(F)(F)F [Example 24, 1-(2-(3-fluoro-5-(trifluoromethyl)benzyl)pyridin-4-yl)-3-(trifluoromethyl)-1H-pyrazole-4-carboxamide] | 25.1 | 91
25 | CCc1nn(-c2ccnc(Cc3cc(F)cc(C(F)(F)F)c3)c2)cc1C(N)=O [Example 25, 3-ethyl-1-(2-(3-fluoro-5-(trifluoromethyl)benzyl)pyridin-4-yl)-1H-pyrazole-4-carboxamide] | 10 | 99
26 | N#Cc1nn(-c2ccnc(Cc3cc(F)cc(C(F)(F)F)c3)c2)cc1C(N)=O [Example 26, 3-cyano-1-(2-(3-fluoro-5-(trifluoromethyl)benzyl)pyridin-4-yl)-1H-pyrazole-4-carboxamide] | 100 | 87
27 | NC(=O)c1cn(-c2ccnc(Cc3cc(F)cc(C(F)(F)F)c3)c2)nc1C1CC1 [Example 27, 3-cyclopropyl-1-(2-(3-fluoro-5-(trifluoromethyl)benzyl)pyridin-4-yl)-1H-pyrazole-4-carboxamide] | 25.1 | 97
28 | CNC(=O)c1cc(C)n(-c2cc(Cc3cc(F)cc(C(F)(F)F)c3)ccn2)n1 [Example 28, 1-(4-(3-fluoro-5-(trifluoromethyl)benzyl)pyridin-2-yl)-N,5-dimethyl-1H-pyrazole-3-carboxamide] | 31.6 | 95
29 | NC(=O)c1ccn(-c2ccnc(Cc3cc(F)cc(C(F)(F)F)c3)c2)n1 [Example 29, 1-(2-(3-fluoro-5-(trifluoromethyl)benzyl)pyridin-4-yl)-1H-pyrazole-3-carboxamide] | 1260 | 86
30 | Cc1cc(C(N)=O)nn1-c1cc(Cc2cc(F)cc(C(F)(F)F)c2)ccn1 [Example 30, 1-(4-(3-fluoro-5-(trifluoromethyl)benzyl)pyridin-2-yl)-5-methyl-1H-pyrazole-3-carboxamide] | 158 | 93
31 | CNC(=O)c1ccn(-c2cc(Cc3cc(F)cc(C(F)(F)F)c3)ccn2)n1 [Example 31, 1-(4-(3-fluoro-5-(trifluoromethyl)benzyl)pyridin-2-yl)-N-methyl-1H-pyrazole-3-carboxamide] | 20 | 87
32 | CN(C)C(=O)c1ccn(-c2cc(Cc3cc(F)cc(C(F)(F)F)c3)ccn2)n1 [Example 32, 1-(4-(3-fluoro-5-(trifluoromethyl)benzyl)pyridin-2-yl)-N,N-dimethyl-1H-pyrazole-3-carboxamide] | 200 | 75
